In patent US20040210184A1, “Effect of electric field and ultrasound for transdermal drug delivery” (Massachusetts Institute of Technology, priority 1995, published 2004):
Blank lines part the entries; values can stand above or below the compound they belong to.

Tests used:
[1] = human, 1 mM, pH 7.4
Description: Full thickness of human cadaver skin (obtained from local hospitals) was heat stripped by immersion in 60° C. water for two minutes followed by the removal of the epidermis. The skin was then stored in a humidified chamber (95% relative humidity) at 4° C. The heat-stripped human epidermis was placed in a custom-made side-by-side permeation chamber, skin area of 0.64 cm^2, designed to adapt an ultrasound transducer at the donor side. The donor compartment was filled with a 1 mM solution of calcein (MW 623, electric charge—4; Sigma Chemicals) (CA) and 1 mM sulphorhodamine (MW 607, electric charge—1; Sigma Chemical) (SR) in 150 mM Phosphate Buffer Saline (PBS; Sigma Chemicals).
The ultrasound probe was inserted into the donor compartment. […]
The fluorometer was set up for dual wavelength measurements (excitation wavelength=488 nm, emission wavelength=515 nm (calcein), and excitation wavelength =586 nm, emission wavelength=607 nm (sulphorhodamine)). […] Transdermal calcein and sulphorhodamine flux was calculated from the fluorescence readings by taking into account parameters such as flow rate, receiver compartment volume, and fluorometer caveat volume. The effluent from the receptor compartment was pumped through a spectrofluorometer (Fluorolog-II-system F112AI SPEX-industries, Edison, N.J.) where the fluorescence of calcein and sulphorhodamine was separately measured twice every minute. […]

[2] = Stability of the molecules under electroporating conditions and temperature, measured by fluorescence; type: physicochemical; details: 1 mM solutions under electroporating conditions
Description: In order to assess the stability of these molecules during electroporation, calcein and sulphorhodamine solutions (1 mM each) were exposed to electroporating conditions similar to those used in this study. No difference between the intensity of their fluorescence before and after exposure to electric fields could be detected. In addition, these molecules are stable up to a temperature of 100° C. (measured in terms of fluorescence).

[3] = type: in vitro ADME
Text: Passive experiments without ultrasound with polyethylene glycol 200 dilaurate (PEG), isopropyl myristate (IM), and glycerol trioleate (GT) result in corticosterone flux enhancement values of only 2, 5, and 0.8, relative to the passive flux from PBS alone. […] These passive flux enhancements were due to (1) the increased corticosterone solubility in the enhancers, and (2) interactions of linoleic acid with the skin. Specifically, linoleic acid increased the corticosterone permeability by nearly 20-fold over that from 50% ethanol alone. […] Ultrasound combined with 50% ethanol produces a 2-fold increase in corticosterone transport above the passive case, but increase by 14-fold the transport from LA/Ethanol.

[4] = ethanol as chemical enhancer; cited from earlier work

enhancement: amount transported in the presence of ultrasound-electric field pulsing to that in the presence of electric field pulsing alone [1]: 2 | difference in fluorescence intensity before and after exposure to electric fields [2]: No difference
SMILES: O=C(O)CN(CC(=O)O)Cc1cc2c(cc1O)Oc1cc(O)c(CN(CC(=O)O)CC(=O)O)cc1C21OC(=O)c2ccccc21 [calcein]

flux [3]: 0.16 mg/cm^2/hr | flux relative to that from PBS alone [3]: 13,000 fold | flux with ultrasound relative to the passive flux from the same enhancers [3]: 1.3-5.0 | permeability increase by linoleic acid over that from 50% ethanol alone [3]: ~20 fold
SMILES: C[C@]12C[C@H](O)[C@H]3[C@@H](CCC4=CC(=O)CC[C@@]43C)[C@@H]1CC[C@@H]2C(=O)CO [corticosterone]

SMILES: C[C@]12CC[C@@H]3c4ccc(O)cc4CC[C@H]3[C@@H]1CC[C@@H]2O [estradiol]
flux increase by ethanol [4]: 140 fold

difference in fluorescence intensity before and after exposure to electric fields [2]: No difference
SMILES: O=S(=O)([O-])c1cc(S(=O)(=O)O)ccc1C1=c2cc3c4c(c2Oc2c1cc1c5c2CCCN5CCC1)CCC[N+]=4CCC3 [sulphorhodamine]
